Columns and labels:
[1] = system: SK-HEP-1 cells; assay: Cell protection assay: viability of SK-HEP-1 cells incubated with fludarabine, CCK-8 assay, 4-parameter logistic potency analysis; details: fludarabine 10 μg/ml, 72 hours
Description: The human liver sinusoidal endothelial cell line SK-HEP-1 was obtained from the American Type Culture Collection (ATCC) and cultured in complete EMEM medium in a humidified cell incubator containing 5% CO2 at 37° C. using gelatin-coated tissue culture flasks. The cells were sub-cultured by trypsin mediated detachment every 2-3 days following the instructions provided by the ATCC. Cells were serially transferred into culture flasks when the culture was 80-90% confluent and used for the protection assay between passages +3 to +10. That is, 3 to 10 passages beyond the characterised passage number of the cells received from the ATCC.
A suspension of SK-HEP-1 for use in the cell protection assay was prepared and counted. […] Cells were counted using a Neubauer counting chamber in the presence of trypan blue to assess the percent viability of the cultures.
Fifty μl of the cell suspensions, or medium alone for blanks, prepared at the concentrations described above was placed in wells of a poly-D-lysine coated 96-well microtiter plate. […] Following addition of the solution to the wells, the plates were returned to the incubator and cell viability was assessed after 24, 48 or 72 hr. […]
After the specified period of incubation, cell viability in each well was measured using the CCK-8 cell counting kit (Sigma Aldrich, Milan, Italy) following the manufacturer's instructions. […]

[2] = system: SK-HEP-1 cells; assay: Cell protection assay: viability of SK-HEP-1 cells incubated with doxorubicin, CCK-8 assay; type: cell-based, human; details: doxorubicin 0.1 μg/ml, defibrotide 50 μg/ml or greater, 72 hours
Description: The cytotoxic agent was doxorubicin at a concentration of 0.1 μg/ml. Defibrotide was added to the microplate well at a concentration of 100, 50, 20, 10, 5 or 1 μg/ml. Three replicates of each condition were performed. The viability was assessed after 72 hours with the CCK-8 assay kit as described above. […] (FIG. 2).

[3] = system: HMEC-1 cells; assay: Cell protection assay: viability of HMEC-1 cells incubated with fludarabine, MTT assay; type: cell-based, human; details: 72 hours
Description: The MTT assay is based on the cleavage of tetrazolium salts by mitochondrial dehydrogenase in viable cells leading to the production of an insoluble formazan dye. MTT dye, 10 μl of a 2 mg/ml solution in D-PBS, was added to each well and then the plates were incubated for 3 hours. Plates were then centrifuged and each well aspirated. The dye was solubilised with 200 μl of a mixture DMSO/Ethanol (1:1) and absorbance in the wells was read at 570-590 nm on a microplate reader. A blank well containing only media and cytotoxic drug (fludarabine or doxorubicin) was also run as a control in all experiments.
HMEC-1 cells were cultivated according to the above mentioned procedure. A cell density of 500,000 cells/ml was used for the assay. […] Defibrotide was added to the microplate well at a concentration of 100, 10 or 1 μg/ml. Four replicates of each condition were performed. The viability of the HMEC cells was assessed after 72 hours with the MTT assay described above.
HMEC-1 cells were cultivated according to the above mentioned procedure. A cell density of about 500,000 cells/ml was used for the experiment. The cytotoxic agent was fludarabine at a concentration of 50 μg/ml. Synthetic oligonucleotides (Adenine-Cytosine (AC) of about 16 kDa or Adenine-Cytosine-Guanine-Thymine (ACGT) of about 17 kDa) or defibrotide were added to each well at varying concentrations. Specifically, the AC oligonucleotides were added to each well at a concentration of 1, 10, 100 or […], whereas the ACGT oligonucleotides were added to each well at a concentration of 12.5, 25 or 50 μg/ml. […] Each treatment condition was performed in triplicate. The viability was assessed with the MTT assay after 24, 48 and 72 hours.

| Compound | protection from fludarabine-induced cytotoxicity (in words) ([1]; ACGT or glutathione 1.25-80 μg/ml, tPA 10-320 IU/ml) | protection from doxorubicin-induced cytotoxicity (in words) [2] | cells surviving ([1]; defibrotide 40 μg/ml or greater) | protection effect against fludarabine-induced cytotoxicity ([3]; fludarabine 10 μg/ml, defibrotide 100 μg/ml) | protection from fludarabine-induced cytotoxicity (in words) ([3]; fludarabine 10 μg/ml, defibrotide 100, 10 or 1 μg/ml) | protection from fludarabine-induced cytotoxicity (in words) ([3]; fludarabine 50 μg/ml, AC 1-500 μg/ml, ACGT 12.5-50 μg/ml, defibrotide 5-100 μg/ml) |
| --- | --- | --- | --- | --- | --- | --- |
| N[C@@H](CCC(=O)N[C@@H](CS)C(=O)NCC(=O)O)C(=O)O [glutathione, Glutathione] | No protection |  |  |  |  |  |
| defibrotide |  | significantly protected | greater than 80% | more than 50% | protected the cells from fludarabine-induced cytotoxicity in a dose-dependent manner | dose-dependent protection |

Reference: US12584903B2, “Cellular-based method for determining the potency of defibrotide” (GENTIUM S.R.L., priority 2014, dated 2026)
